# Test results taken from PMC9920749, “In Vitro and In Silico Studies of Neolignans from Magnolia grandiflora L. Seeds against Human Cannabinoids and Opioid Receptors” (Molecules, 2023).
# Like-named read-outs stand apart in the source and are kept apart here.
# How the values were obtained:
# [1] = molecular target: CB2R; settings: cited from earlier work
# [2] = molecular target: CB1R; settings: data from the original publication; read-out: CB1R Agonist Ki; cited from earlier work
# [3] = system: CB2R; design: method as in Schuehly et al. (2011); settings: ref Schuehly et al. (2011); cited from earlier work
# [4] = system: CB2 receptor; design: method as in PMID 24204944; settings: forskolin-induced cAMP; cited from earlier work
# [5] = system: CB1 receptor; design: method as in PMID 24204944; settings: forskolin-induced cAMP; cited from earlier work
# [6] = molecular target: T1, CB2R (Homo sapiens, UniProt P34972); assay: Competitive radioligand binding assay, [3H]-CP55,940, HEK293 membranes; settings: for Cannabinoid Receptors (% Displacement) CB2: 10 μM purified compounds and 2 + 3
# T1 construct: expressed in transfected cells; host or cells: HEK293 (ATCC), stably transfected; membrane preparation
# T1 sequence (P34972 whole entry): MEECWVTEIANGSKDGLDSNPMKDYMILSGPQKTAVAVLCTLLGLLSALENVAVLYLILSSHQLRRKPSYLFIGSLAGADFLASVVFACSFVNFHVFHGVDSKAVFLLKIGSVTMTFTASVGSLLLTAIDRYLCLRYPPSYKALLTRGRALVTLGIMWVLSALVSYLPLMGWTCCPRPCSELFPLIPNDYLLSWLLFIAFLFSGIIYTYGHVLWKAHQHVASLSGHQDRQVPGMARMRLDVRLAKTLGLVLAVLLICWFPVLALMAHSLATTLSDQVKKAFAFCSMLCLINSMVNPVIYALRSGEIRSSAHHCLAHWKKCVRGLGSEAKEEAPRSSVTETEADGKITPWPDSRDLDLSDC
# Method: (§1) Cannabinoid and opioid competitive radioligand binding assays were performed as previously described. Saturation experiments were performed for all the receptors to determine receptor concentration and radioligand dissociation constant (Kd) for the membrane. Percent displacements were evaluated for all the cannabinoid and opioid subtypes with a triplicate of a fixed concentration (10 µg/mL for extracts and fractions, 10 μM for purified compounds). […] Control/test compounds were dissolved in DMSO at 10 μg/mL for extracts and fractions and 10 μM for purified compounds. […] The competitive binding assays were performed using 12 serial dilutions of each compound ranging from 0.002–300 μM (control compounds were serially diluted from 10 μM to 0.06 nM). The cannabinoid assays were incubated for 90 min at 37 °C with gentle agitation. The opioid assays were incubated for 60 min at room temperature. Bound radioligand was collected on GF/C (cannabinoid) or GF/B plates (opioid), washed 10 times with ice-cold 50 mM Tris-HCl (pH 7.4)/0.1% BSA (cannabinoid) or ice-cold 50 mM Tris-HCl (pH 7.4) (opioid). Radiodetection was measured with 50 µL (cannabinoid) or 25 µL (opioid) MicroScint^TM-20 on a TopCount NXT HTS Microplate Scintillation Counter (PerkinElmer, Waltham, MA, USA). The IC50 and Ki values were calculated by a non-linear curve fit model using GraphPad Prizm 5.0 software (GraphPad Software Inc., San Diego, CA, USA). Each compound was tested in triplicate unless stated otherwise.
# (§2) Percent displacement was calculated to represent the ability of the samples to displace the radioligand binding for a given cannabinoid or opioid receptor subtype.
# (§3) % displacement was calculated as follows: 100− binding of compound−nonspecific binding/specific binding×100
# [7] = molecular target: T2, δ opioid receptor (Homo sapiens, UniProt P41143); assay: Competitive radioligand binding assay, [3H]-enkephalin (DPDPE), HEK293 membranes; settings: 10 μM purified compounds and 2 + 3
# T2 construct: host or cells: HEK293, stably transfected; membrane preparation
# T2 sequence (P41143 whole entry): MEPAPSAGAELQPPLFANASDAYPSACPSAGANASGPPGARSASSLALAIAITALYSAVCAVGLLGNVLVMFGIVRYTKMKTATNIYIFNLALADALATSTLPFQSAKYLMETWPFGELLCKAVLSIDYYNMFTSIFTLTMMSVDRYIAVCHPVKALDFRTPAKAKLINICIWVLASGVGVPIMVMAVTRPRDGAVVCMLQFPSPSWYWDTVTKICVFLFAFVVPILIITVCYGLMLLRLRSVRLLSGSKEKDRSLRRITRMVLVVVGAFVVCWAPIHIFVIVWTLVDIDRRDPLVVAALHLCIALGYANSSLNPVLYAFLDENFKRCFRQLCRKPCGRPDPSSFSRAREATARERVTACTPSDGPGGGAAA
# Method: (§4) HEK293 cells stably transfected with δ, κ, and μ opioid subtypes were a generous gift from Roth Laboratories (University of North Carolina at Chapel Hill, NC, USA). Opioid cells were maintained as previously described. Membranes were made by washing the cells with cold PBS. The cells were then scraped in cold 50 mM Tris-HCl, pH 7.4 buffer. The solution was centrifuged at 5200× g for 10 min at 4 °C. Next, the supernatant was discarded, and the pellet was washed with more Tris-HCl buffer, homogenized via Sonic Dismembrator (Fisher Scientific, Pittsburgh, PA, USA) and then centrifuged at 24,000× g for 40 min at 4 °C. […] The total membrane protein concentration was measured using a Pierce BCA Protein Assay Kit (Thermo Scientific, Rockford, IL, USA) as per the manufacturer’s protocol.
# (§5) Cannabinoid and opioid competitive radioligand binding assays were performed as previously described. […] Percent displacements were evaluated for all the cannabinoid and opioid subtypes with a triplicate of a fixed concentration (10 µg/mL for extracts and fractions, 10 μM for purified compounds). […] Radiodetection was measured with 50 µL (cannabinoid) or 25 µL (opioid) MicroScint^TM-20 on a TopCount NXT HTS Microplate Scintillation Counter (PerkinElmer, Waltham, MA, USA). The IC50 and Ki values were calculated by a non-linear curve fit model using GraphPad Prizm 5.0 software (GraphPad Software Inc., San Diego, CA, USA). […]
# [8] = molecular target: T3, µ opioid receptor (Homo sapiens, UniProt P35372); assay: biochemical; format: binding; settings: for Opioid Receptors (% Displacement) µ: 10 μM purified compounds and 2 + 3; for IC50: 2 and 3 run as a singlet; for µ Opioid Receptor Ki ± SEM / Ki: 2 and 3 run as a singlet (no S.E.M.); for Ki: read-out: µ Opioid Receptor Ki ± SEM
# T3 construct: host or cells: HEK293, stably transfected; membrane preparation
# T3 sequence (P35372 whole entry): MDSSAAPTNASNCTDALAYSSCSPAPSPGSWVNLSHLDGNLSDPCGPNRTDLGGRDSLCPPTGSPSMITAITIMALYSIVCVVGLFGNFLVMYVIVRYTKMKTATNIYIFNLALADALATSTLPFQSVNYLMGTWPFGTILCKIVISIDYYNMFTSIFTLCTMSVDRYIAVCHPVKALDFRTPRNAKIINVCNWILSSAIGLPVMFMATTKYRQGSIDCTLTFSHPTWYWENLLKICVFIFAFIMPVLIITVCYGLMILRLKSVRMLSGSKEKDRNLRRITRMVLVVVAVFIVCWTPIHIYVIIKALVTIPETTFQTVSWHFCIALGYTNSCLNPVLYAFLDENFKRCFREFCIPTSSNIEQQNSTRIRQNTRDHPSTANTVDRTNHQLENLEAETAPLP
# Method: (§6) HEK293 cells stably transfected with δ, κ, and μ opioid subtypes were a generous gift from Roth Laboratories (University of North Carolina at Chapel Hill, NC, USA). Opioid cells were maintained as previously described. Membranes were made by washing the cells with cold PBS. The cells were then scraped in cold 50 mM Tris-HCl, pH 7.4 buffer. The solution was centrifuged at 5200× g for 10 min at 4 °C. Next, the supernatant was discarded, and the pellet was washed with more Tris-HCl buffer, homogenized via Sonic Dismembrator (Fisher Scientific, Pittsburgh, PA, USA) and then centrifuged at 24,000× g for 40 min at 4 °C. Finally, the pellet was re-suspended in cold 50 mM Tris-HCl buffer, aliquoted into 2 mL vials, and stored at −80 °C. The total membrane protein concentration was measured using a Pierce BCA Protein Assay Kit (Thermo Scientific, Rockford, IL, USA) as per the manufacturer’s protocol.
# as §1, §2, §3
# [9] = molecular target: T4, κ opioid receptor (Homo sapiens, UniProt P41145); format: binding; settings: 10 μM purified compounds and 2 + 3
# T4 construct: host or cells: HEK293, stably transfected; membrane preparation
# T4 sequence (P41145 whole entry): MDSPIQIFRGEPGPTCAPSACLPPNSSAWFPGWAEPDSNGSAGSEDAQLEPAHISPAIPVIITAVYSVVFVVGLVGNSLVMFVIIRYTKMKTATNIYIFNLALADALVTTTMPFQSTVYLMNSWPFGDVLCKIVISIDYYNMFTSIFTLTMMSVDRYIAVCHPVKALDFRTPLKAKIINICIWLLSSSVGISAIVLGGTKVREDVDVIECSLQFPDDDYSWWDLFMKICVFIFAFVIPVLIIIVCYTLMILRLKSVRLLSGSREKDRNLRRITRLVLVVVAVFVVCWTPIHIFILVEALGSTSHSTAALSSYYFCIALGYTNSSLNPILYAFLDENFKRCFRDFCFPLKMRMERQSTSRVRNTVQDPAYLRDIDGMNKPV
# Method: as §4, §5
# [10] = molecular target: T5, CB1R (Homo sapiens, UniProt P21554); assay: Competitive radioligand binding assay, [3H]-CP55,940, HEK293 membranes; settings: for Cannabinoid Receptors (% Displacement) CB1: 10 μM purified compounds and 2 + 3; for IC50: concentration for 50% displacement of 3H-labeled ligand; for Ki: read-out: CB1R Ki ± SEM
# T5 construct: expressed in transfected cells; host or cells: HEK293 (ATCC), stably transfected; membrane preparation
# T5 sequence (P21554 whole entry): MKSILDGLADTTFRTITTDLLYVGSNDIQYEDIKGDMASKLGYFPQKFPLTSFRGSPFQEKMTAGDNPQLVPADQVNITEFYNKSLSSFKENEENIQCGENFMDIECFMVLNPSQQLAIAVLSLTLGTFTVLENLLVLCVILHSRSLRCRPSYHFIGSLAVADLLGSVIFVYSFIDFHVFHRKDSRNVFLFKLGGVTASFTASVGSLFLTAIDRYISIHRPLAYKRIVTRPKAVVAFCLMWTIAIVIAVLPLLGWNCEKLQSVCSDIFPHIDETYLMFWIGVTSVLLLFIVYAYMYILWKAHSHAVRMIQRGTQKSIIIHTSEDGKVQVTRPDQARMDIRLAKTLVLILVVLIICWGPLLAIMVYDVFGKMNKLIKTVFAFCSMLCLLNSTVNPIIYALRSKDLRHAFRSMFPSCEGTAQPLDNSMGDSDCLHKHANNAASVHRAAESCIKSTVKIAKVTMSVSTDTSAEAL
# Method: as §6, §1, §2, §3
# [11] = system: CB2R; design: method as in earlier work; settings: ref 27 (Rempel et al. 2013); cited from earlier work
# [12] = data from the original publication, read-out: CB2R Agonist Ki
# [13] = concentration for 50% displacement of 3H-labeled ligand, read-out: CB2R IC50
compound,measurement,setting,value
CCCCCCc1ccc(OC)c(-c2cc(CCC)ccc2O)c1 [Compound 6b],Ki,[1]; [12],281 ± 101 nM
same,Ki,[2],313 nM
CCCCCCc1ccc(O)c(-c2cc(CCC)ccc2O)c1 [Compound 6],Ki,[1]; [12],29.4 ± 9 nM
same,Ki,[2],145 ± 48 nM
CCCCCc1ccc(O)c(-c2cc(CCC)ccc2OC)c1 [Compound 5a],Ki,[1]; [12],31 ± 9.9 nM
same,Ki,[2],17.3 ± 1.4 nM
"C=CCc1ccc(O)c(-c2ccc(OC)c(CC=C)c2)c1 [Compound 1, 4-O-methylhonokiol]",behavior at CB2R at Gi/o,[3],inverse agonist
same,behavior at CB2R regarding intracellular Ca2+ [Ca2+]i,[3],full agonist
same,functional activity at CB2 in cAMP accumulation,[4],agonist
same,functional activity at CB1 in cAMP accumulation,[5],agonist
same,IC50,[6],590 nM
same,Ki,[6],290 ± 20 nM
same,Cannabinoid Receptors (% Displacement) CB2,[6],82.2%
same,Opioid Receptors (% Displacement) Δ,[7],31.4%
same,Ki,[1]; [12],43.3 ± 17.1 nM
same,Opioid Receptors (% Displacement) µ,[8],46.2%
same,Opioid Receptors (% Displacement) κ,[9],18.3%
"CCCc1ccc(O)c(-c2cc(CCC)ccc2OC)c1 [Compound 4a, methoxytetrahydromagnolol]",Ki,[1]; [12],221 ± 57 nM
same,Ki,[2],267 ± 58 nM
"CCCCCCC(C)(C)c1ccc([C@@H]2C[C@H](O)CC[C@H]2CCCO)c(O)c1 [CP55,940, reference compound]",Cannabinoid Receptors (% Displacement) CB2,[6],101.3%
CCCCCc1ccc(O)c(-c2cc(CCC)ccc2O)c1 [Compound 5],Ki,[1]; [12],37.5 ± 7.8 nM
same,Ki,[2],362 ± 113 nM
"C=CCc1ccc(O)c(-c2cc(CC=C)ccc2O)c1 [Compound 2, magnolol]",Cannabinoid Receptors (% Displacement) CB1,[10],52.7%
same,IC50,[10],35600 nM
same,Ki,[10],17800 ± 3430 nM
same,Cannabinoid Receptors (% Displacement) CB2,[6],74.7%
same,IC50,[6]; [13],2890 nM
same,Ki,[6]; read-out: CB2R Ki ± SEM,1400 ± 140 nM
same,Opioid Receptors (% Displacement) Δ,[7],7.3%
same,Ki,[1]; [12],1440 nM
same,functional character at CB2R,[11],partial CB2R agonists
same,Ki,[2],3150 nM
same,Opioid Receptors (% Displacement) µ,[8],52.9%
same,IC50,[8],106000 nM
same,µ Opioid Receptor Ki ± SEM,[8],low affinity
same,Ki,[8],53100 nM
same,Opioid Receptors (% Displacement) κ,[9],10.7%
"C=CCc1ccc(O)c(-c2ccc(O)c(CC=C)c2)c1 [Compound 3, honokiol]",Cannabinoid Receptors (% Displacement) CB1,[10],50.8%
same,IC50,[10],29100 nM
same,Ki,[10],14500 ± 2470 nM
same,Cannabinoid Receptors (% Displacement) CB2,[6],65.7%
same,IC50,[6]; [13],3880 nM
same,Ki,[6]; read-out: CB2R Ki ± SEM,1940 ± 160 nM
same,Ki,[1]; [12],5610 nM
same,functional character at CB2R,[11],CB2R antagonist or inverse agonist
same,Ki,[2],6460 nM
same,Opioid Receptors (% Displacement) µ,[8],54.2%
same,IC50,[8],91100 nM
same,µ Opioid Receptor Ki ± SEM,[8],low affinity
same,Ki,[8],182000 nM
"CCCc1ccc(O)c(-c2cc(CCC)ccc2O)c1 [Compound 4, tetrahydromagnolol]",Cannabinoid Receptors (% Displacement) CB1,[10],30.8%
same,IC50,[10],38200 nM
same,Ki,[10],19100 ± 790 nM
same,Cannabinoid Receptors (% Displacement) CB2,[6],78.2%
same,IC50,[6]; [13],1990 nM
same,Ki,[6]; read-out: CB2R Ki ± SEM,990 ± 140 nM
same,Ki,[1]; [12],416 nM
same,Ki,"[1]; ref 27 (Rempel et al. 2013), read-out: CB2R Ki",410 nM
same,functional character at CB2R,[11],partial CB2R agonists
same,Ki,[2],2260 nM
CCCCCCc1ccc(O)c(-c2cc(CCC)ccc2OC)c1 [Compound 6a],Ki,[1]; [12],23.8 ± 7.1 nM
same,Ki,[2],9.57 ± 5.43 nM
